Experimental data from US20060293307A1, “Oxazolidinone derivatives as antimicrobials” (priority 2002, published 2006).
In brackets after ≈: the same amount, converted by molar mass.

Tests used:
S. pneumoniae AB-3 = assay: MIC, agar incorporation method; format: cell-based, Streptococcus pneumoniae; conditions: Streptococcus pneumoniae, AB3; S. No. 32, S. pneumoniae AB-3; read-out: MIC
E. faecalis 29212 = assay: MIC, agar incorporation method; format: cell-based; conditions: Enterococcus faecalis; S. No. 17, E. faecalis 29212; read-out: MIC
S. pneumoniae AB 17 = assay: MIC, agar incorporation method; format: cell-based, Streptococcus pneumoniae; conditions: Streptococcus pneumoniae, AB17; S. No. 40, S. pneumoniae AB 17; read-out: MIC
S. pneumoniae ATCC 6303 = assay: MIC, agar incorporation method; format: cell-based, Streptococcus pneumoniae; conditions: Streptococcus pneumoniae, ATCC6303; S. No. 50, S. pneumoniae ATCC 6303; read-out: MIC
S. pneumoniae AB 14 = assay: MIC, agar incorporation method; format: cell-based, Streptococcus pneumoniae; conditions: Streptococcus pneumoniae, AB14; S. No. 37, S. pneumoniae AB 14; read-out: MIC
S. aureus ATCC29213 = assay: MIC, agar incorporation method; format: cell-based, Staphylococcus aureus; conditions: Staphylococcus aureus; S. No. 2, S. aureus ATCC29213; read-out: MIC
S. pneumoniae AB 22 = assay: MIC, agar incorporation method; format: cell-based, Streptococcus pneumoniae; conditions: Streptococcus pneumoniae, AB22; S. No. 42, S. pneumoniae AB 22; read-out: MIC
S. warnerii ST360 = assay: MIC, agar incorporation method; format: cell-based
S. pneumoniae CS1221 = assay: MIC, agar incorporation method; format: cell-based, Streptococcus pneumoniae; conditions: Streptococcus pneumoniae; S. No. 34, S. pneumoniae CS1221; read-out: MIC
S. pneumoniae AB 31 = assay: MIC, agar incorporation method; format: cell-based, Streptococcus pneumoniae; conditions: Streptococcus pneumoniae, AB31; S. No. 36, S. pneumoniae AB 31; read-out: MIC
S. pyogenes 25147 = assay: MIC, agar incorporation method; format: cell-based, Streptococcus pyogenes; conditions: Streptococcus pyogenes; S. No. 52, S. pyogenes 25147; read-out: MIC
[1] = tested on: S. epidermidis (MRSE)32965; assay: MIC, agar incorporation method; format: cell-based, Staphylococcus epidermidis; conditions: Staphylococcus epidermidis; S. No. 13, S. epidermidis (MRSE)32965; read-out: MIC
S. pneumoniae CS 1687 = assay: MIC, agar incorporation method; format: cell-based, Streptococcus pneumoniae; conditions: Streptococcus pneumoniae, CS1687; S. No. 44, S. pneumoniae CS 1687; read-out: MIC
S. epidermidis 358 = assay: MIC, agar incorporation method; format: cell-based, Staphylococcus epidermidis; conditions: Staphylococcus epidermidis; S. No. 14, S. epidermidis 358; read-out: MIC
Moraxella M1 = assay: MIC, agar incorporation method; format: cell-based; conditions: S. No. 58, Moraxella M1; read-out: MIC
S. epidermidis 823 = assay: MIC, agar incorporation method; format: cell-based, Staphylococcus epidermidis; conditions: Staphylococcus epidermidis; S. No. 12, S. epidermidis 823; read-out: MIC
S. aureus ATCC 25923 = assay: MIC, agar incorporation method; format: cell-based, Staphylococcus aureus; conditions: Staphylococcus aureus, ATCC25923; S. No. 1, organism cell empty; read-out: MIC
E. coli 25922 = assay: MIC, agar incorporation method; format: cell-based; conditions: Escherichia coli; S. No. 25, E. coli 25922; read-out: MIC
[2] = tested on: S. epidermidis ATCC 12228; assay: MIC, agar incorporation method; format: cell-based, Staphylococcus epidermidis; conditions: Staphylococcus epidermidis, ATCC12228; S. No. 10, S. epidermidis ATCC 12228; read-out: MIC
E. faecium 6A (VRE) = assay: MIC, agar incorporation method; format: cell-based, Enterococcus faecium; conditions: Enterococcus faecium; S. No. 21, E. faecium 6A (VRE); read-out: MIC
S. aureus (MRSA) ST450 = assay: MIC, agar incorporation method; format: cell-based, Staphylococcus aureus; conditions: Staphylococcus aureus; S. No. 6, S. aureus (MRSA) ST450; read-out: MIC
(MRSA) 562 = assay: MIC, agar incorporation method; format: cell-based, Staphylococcus aureus; conditions: Staphylococcus aureus; S. No. 8, (MRSA) 562; read-out: MIC
S. haemo ATCC 29970 = assay: MIC, agar incorporation method; format: cell-based; conditions: S. No. 15, S. haemo ATCC 29970; read-out: MIC
S. aureus (Smith 49951) = assay: MIC, agar incorporation method; format: cell-based, Staphylococcus aureus; conditions: Staphylococcus aureus; S. No. 9, S. aureus (Smith 49951); read-out: MIC
Acinetobacter 9956 = assay: MIC, agar incorporation method; format: cell-based; conditions: S. No. 30, Acinetobacter 9956; read-out: MIC
H. influenzae R = assay: MIC against Haemophilus strains; format: cell-based; conditions: Haemophilus influenzae; s. No. 4, H. influenzae R; read-out: MIC
H. influenzae ATCC 49247 = assay: MIC against Haemophilus strains; format: cell-based; conditions: Haemophilus influenzae, ATCC49247; s. No. 2, H. influenzae ATCC 49247; read-out: MIC
H. influenzae 474 = assay: MIC against Haemophilus strains; format: cell-based; conditions: Haemophilus influenzae; s. No. 11, H. influenzae 474; read-out: MIC

| Structure (SMILES) | MIC (S. pneumoniae AB-3) [µg/mL] | MIC (E. faecalis 29212) [µg/mL] | MIC (S. pneumoniae AB 17) [µg/mL] | MIC (S. pneumoniae ATCC 6303) [µg/mL] | MIC (S. pneumoniae AB 14) [µg/mL] | MIC (S. aureus ATCC29213) [µg/mL] | MIC (S. pneumoniae AB 22) [µg/mL] | MIC (S. pneumoniae CS1221) [µg/mL] | MIC (S. pneumoniae AB 31) [µg/mL] | MIC (S. pyogenes 25147) [µg/mL] | MIC [1] [µg/mL] | MIC (S. pneumoniae CS 1687) [µg/mL] | MIC (S. epidermidis 358) [µg/mL] | MIC (Moraxella M1) [µg/mL] | MIC (S. epidermidis 823) [µg/mL] | MIC (S. aureus ATCC 25923) [µg/mL] | MIC (E. coli 25922) [µg/mL] | MIC [2] [µg/mL] | MIC (E. faecium 6A (VRE)) [µg/mL] | MIC (S. aureus (MRSA) ST450) [µg/mL] | other results |
| --- | --- | --- | --- | --- | --- | --- | --- | --- | --- | --- | --- | --- | --- | --- | --- | --- | --- | --- | --- | --- | --- |
| CC(=O)NC[C@H]1CN(c2ccc(N3CCN(c4ccc([N+](=O)[O-])o4)CC3)c(F)c2)C(=O)O1 [Compound No. 4, (S)—N-[[3-[3-Fluoro-4-[4-(5-nitro-2-furyl)-1-piperazinyl]phenyl]-2-oxo-5-oxazolidinyl]methyl]acetamide] | 8 (≈ 17.9 µM) | 8 (≈ 17.9 µM) | 4 (≈ 8.94 µM) | 4 (≈ 8.94 µM) | 2 (≈ 4.47 µM) | 16 (≈ 35.8 µM) | 8 (≈ 17.9 µM) | 8 (≈ 17.9 µM) | 8 (≈ 17.9 µM) | 4 (≈ 8.94 µM) | 4 (≈ 8.94 µM) | 4 (≈ 8.94 µM) | 4 (≈ 8.94 µM) | > 16 | 4 (≈ 8.94 µM) | 16 (≈ 35.8 µM) | > 16 | 4 (≈ 8.94 µM) | 8 (≈ 17.9 µM) | 8 (≈ 17.9 µM) | MIC (S. warnerii ST360): 8 µg/mL (≈ 17.9 µM); MIC ((MRSA) 562): 16 µg/mL (≈ 35.8 µM); MIC (S. haemo ATCC 29970): 4 µg/mL (≈ 8.94 µM); MIC (S. aureus (Smith 49951)): 16 µg/mL (≈ 35.8 µM); MIC (Acinetobacter 9956): > 16 µg/mL |
| CC(=O)NC[C@H]1CN(c2ccc(N3CCN(c4ccc(C=O)o4)CC3)c(F)c2)C(=O)O1 [Compound No. 3, (S)—N-[[3-[3-Fluoro-4-[4-(5-formyl-2-furyl)-1-piperazinyl]phenyl]-2-oxo-5-oxazolidinyl]methyl]acetamide] | 0.25 (≈ 0.581 µM) | 0.5 (≈ 1.16 µM) | < 0.125 | 0.25 (≈ 0.581 µM) | < 0.125 | 1 (≈ 2.32 µM) | 0.25 (≈ 0.581 µM) | 0.25 (≈ 0.581 µM) | 0.25 (≈ 0.581 µM) | 0.25 (≈ 0.581 µM) | 0.5 (≈ 1.16 µM) | 0.25 (≈ 0.581 µM) | 0.5 (≈ 1.16 µM) | 2 (≈ 4.65 µM) | 0.5 (≈ 1.16 µM) | 1 (≈ 2.32 µM) | > 16 | 0.25 (≈ 0.581 µM) | 0.5 (≈ 1.16 µM) | 1 (≈ 2.32 µM) | MIC (H. influenzae R): 8 µg/mL (≈ 18.6 µM); MIC (H. influenzae ATCC 49247): 4 µg/mL (≈ 9.29 µM); MIC ((MRSA) 562): 0.5 µg/mL (≈ 1.16 µM); MIC (S. haemo ATCC 29970): 0.25 µg/mL (≈ 0.581 µM); MIC (H. influenzae 474): 4 µg/mL (≈ 9.29 µM); MIC (S. aureus (Smith 49951)): 0.5 µg/mL (≈ 1.16 µM); MIC (Acinetobacter 9956): > 16 µg/mL |
